Patent US9918480B2, “Compositions and methods to selectively control invasive species” (STEPHEN F. AUSTIN STATE UNIVERSITY, priority 2013, dated 2018)
Read-outs that look alike come from different tables or passages of the source.

Tests used:
[1] = test system: L. leucocephala; conditions: 100 mg/L; cited from earlier work
[2] = test system: subterranean termite (Reticulitermes flavipes (Kollar)); conditions: for termite kill: during the first hour
Experimental: The mixture was put under ultrasound for 30 min extraction. The termites were then removed and the extract was dried with anhydrous magnesium sulfate. 500 μL of the extract was transferred to NMR tube for detection. ^1H-NMR experiments were performed on a JEOL ECS 400 spectrometer, with spectroscopic data referenced to the solvent used. […] The control group was sprayed with 1 mL pure water. The beakers in all treatments were covered by cloth to prevent the escape of termites. The surviving number of the termites in each treatment was counted by 1 h interval for 7 h.

[3] = test system: red imported fire ant (Solenopsis invicta Buren) workers; conditions: for average mortality: 90 min
Experimental: (§1) Preparation of the fire ant extracts: (1) Acetone extract: 97 g (in fresh weight) of the red imported fire ant workers were extracted two times with acetone at RT (each 250 mL, 24 h). […] (2) Ethanol extract: 110 g (in fresh weight) of the whole worker bodies of the red imported fire ant (Solenopsis invicta Buren) (family Furmicidae) were extracted two times with 95% EtOH at RT (each 250 mL, 24 h). […] Both extracts were dissolved in water and then prepared as experimental solutions at the concentration of 0.1%, 1%, 5%, and 10%, respectively. […] The mixture was put under ultrasound for 30 min extraction. The fire ants were then removed and the extract was dried with anhydrous magnesium sulfate. 500 μL of the extract was transferred to NMR tube for detection. ^1H-NMR experiments were performed on a JEOL ECS 400 spectrometer, with spectroscopic data referenced to the solvent used. […] The ants in each beaker were topically sprayed with a total 1 mL of 0.1%, 1%, 5%, or 10% solutions of either acetone or ethanol extract, respectively. The control group was sprayed with 1 mL pure water. The beakers in all treatments were covered by cloth to prevent the escape of the fire ants. The surviving number of the fire ants in each treatment was counted by 1 h interval for 7 h. […] The ants in each beaker were topically sprayed with a total 1 mL of 0.1%, 1%, or 5% solutions of either formic or acetic acids, respectively. The control group was sprayed with 1 mL pure water. The beakers in all treatments were covered by cloth to prevent the escape of fire ants. The surviving number of the fire ants in each treatment was counted by 1 h interval for 7 h. […] The surviving number of the fire ants in each treatment was counted by 15 min interval for 90 min. […] The surviving number of the fire ants in each treatment was counted by 15 min interval for 90 min. […] The surviving number of the fire ants in each treatment was counted by 1 h interval for 7 h. […] The surviving number of the fire ants in each treatment was counted by 1 h interval for 2 h. […]

[4] = test system: giant salvinia (Salvinia molesta)
Experimental: Plant growth and survival status were documented and photographed hourly for the first 5 h and then daily for seven days after the treatment.

[5] = test system: red imported fire ant (Solenopsis invicta Buren) workers; experiment: Contact toxicity assay, topical spray on fire ant workers, 7 h; assay type: in vivo; conditions: PROBIT
Experimental: as §1

[6] = test system: giant salvinia (Salvinia molesta); experiment: Spray of salviniside II and other isolates/fractions on giant salvinia plants; assay type: in vivo; parameters: key to activity class against giant salvinia: inactive: not able to inhibit the growth of giant salvinia at all; active: able to fully inhibit the growth of giant salvinia at high concentrations; very active: able to fully inhibit the growth of giant salvinia at low concentrations
Experimental: The combined fractions were loaded on a pre-equilibrated open ODS column (60×600 mm). The ODS column was eluted successively with 30%, 55%, 75% and 100% MeOH to yield four fractions F1, F2, F3, and F4, respectively. […] NMR experiments were performed on a JEOL ECS-400 and a Bruker Avance 700 NMR instrument. NMR data were reported as δ (ppm) values and referenced to the solvent used. HRESIMS were acquired on an electrospray instrument (MDS Sciex Pulsar Qstar, Ontario, Canada). Octadecyl-functionalized silica gel, silica gel, Sephadex LH-20, and TLC plates were purchased from Aldrich Chemical Co. HPLC analysis was performed on a Hewlett Packard Series 1100 with a HP 1100 diode array detector using a Hypersil ODS column (150×4.6 mm, 5 μM, Supelco; flow rate, 1 mL/min; MeOH/H2O (v/v) linear gradient, 2:98-98:2 in 35 min). Preparative HPLC was performed with an Acuflow Series III pump connected with an Acutect 500 UV/VIS detector using an Econosil ODS column (250×22 mm, 10 μM, All tech). The total 27 healthy and untreated living plants of giant salvinia (in secondary growth stage, approximately 10 g in fresh weight each) were cultured and tested in plastic containers (14×15 cm, 0.68 L) in the NCPC Lab at RT. The […] treatments were as follows. Controls: 9 plants with three in each container (3 replications) were cultured with 150 mL of tap water; 0.01% salviniside II treatment: 9 plants with three in each container (3 replications) were sprayed with 150 mL 0.01% of salviniside II dissolved in tap water; and 0.1% salviniside II treatment: 9 plants with three in each container (3 replications) were sprayed with 150 mL 0.1% of salviniside II dissolved in tap water. […] By the end of two weeks, new growth biomass of plants in each treatment was measured. The biomass of new growth was a primary factor to measure the inhibition of each treatment on the target plant.

[7] = test system: seedlings of rice cultivars; conditions: vs four species of Brassicaceae, Asteraceae, Fabaceae and five weed grass species of Poaceae; cited from earlier work

NC(Cn1ccc(=O)c(O)c1)C(=O)O (stereo not shown) [Minosine]
inhibition on the producing plants [1]: did not show any inhibition

O=CO [formic acid]
impact on the termites ([2]; 0.1%): no impact | termites killed ([2]; 1%, 7 h): more than 40% | termite kill ([2]; 5%): killed all termites | termite kill ([2]; 10%): killed all termites | 7 h LD90 ([2]; contact toxicity): 9.08% | average mortality ([3]; 2.5%): more than 70% | average mortality ([3]; 5%): 100% | 2 h LD90 ([3]; fumigation, PROBIT): 0.9% | growth inhibition ([4]; 0.01% concentration): still effectively inhibited the growth of giant salvinia | plants killed ([4]; 0.05% concentration, within 24 h): approximately 50% | 7 h LD90 [5]: 5.09%

4″,6″-O-[3,5-dicarbonyl-8-hydroxy-2-(4′,5′-dihydroxy-phenyl)-1-benzofuran-2-yl]-D-glucopyranose [salviniside II]
new growth thereafter ([6]; 0.1%, eight months of observation): no new growth | growth of giant salvinia ([6]; 0.1%, within two weeks, lab at RT): totally inhibited | activity class against giant salvinia ([6]; isolates and subfractions of F3): active

C=C[C@]1(C)CC[C@@H]2C(=C[C@H]3OC(=O)[C@@]4(C)C(=O)CC[C@@]2(C)[C@@H]34)C1 [momilactone A]
effective concentration to inhibit rice seedlings relative to that for other species [7]: 100 times

C=C[C@]1(C)CC[C@@H]2C(=C[C@H]3OC(=O)[C@]4(C)[C@H]3[C@]23CC[C@@]4(O)OC3)C1 [momilactone B]
effective concentration to inhibit rice seedlings relative to that for other species [7]: 333 times

CC(=O)O [acetic acid]
7 h LD50 [5]: 6.42% | 7 h LD90 [5]: 9.96%
